pIC50: −log10 of the molar value.
Assays:
[1] = cited from earlier work
SARS-CoV-2 [2] = format: cell-based; conditions: Calu-3, independently of the time of administration
in vitro = conditions: African green monkey
SARS-CoV-2 [3] = format: cell-based
Calu-3 cells = conditions: MTT
Vero E6 cells = conditions: MTT, within the concentration range tested (1-80 μM)

Structure (SMILES) | decomposition in cell culture medium after 6 h [1] | effect on viral replication (in words) (SARS-CoV-2 [2]) | pIC50 (in vitro) | LR (reduction of viral load) (SARS-CoV-2 [3]) [log] | cytotoxicity (in words) (Calu-3 cells; concentration up to 20 μM) | cell viability at the higher concentrations tested (in words) (Calu-3 cells; concentrations above 20 μM) | cytotoxicity (in words) (Vero E6 cells)
C[C@H]1[C@@H](O)O[C@@H]2O[C@@]3(C)CC[C@H]4[C@H](C)CC[C@@H]1[C@@]24OO3 [DHA, dihydroartemisinin] | up to 70% | slightly interfere with viral replication | 4.67 | < 1 | noncytotoxic | slightly altering cell viability | 
C[C@H](CCC(=O)O)[C@H]1CC[C@H]2[C@@H]3[C@@H](O)C[C@@H]4C[C@H](O)CC[C@]4(C)[C@H]3CC[C@]12C [UDCA, ursodeoxycholic acid] |  |  |  | < 1 |  |  | noncytotoxic

— PMC10688034 (ACS Omega, 2023)
